Laboratory results published in patent publication US20230121771A1, “A PHARMACEUTICAL COMBINATION OF AN ARTEMISININ COMPOUND, 5-AMINOLEVULINIC ACID OR METHYL-5-AMINOLEVULINIC ACID AND A CHEMOTHERAPEUTIC AGENT” (JLP Health GmbH, priority 2020, published 2023).
Starred links: 1 amine or outer side, 2 acyl side, 3 side chain; linkers in the order of their positions; H or OH if unused. Positions of bridges follow the written chain, without caps; N, C: chain ends. Non-standard residues stand in square brackets, D forms with d. Residues, ends and D or L forms follow the SMILES beside them. Chains are numbered I, II in the order given. Actinocin(9to1) = Cc1c2oc3c(C)ccc(C(=O)[*:1])c3nc-2c(C(=O)[*:2])c(N)c1=O; NMeV = CN[C@H](C(=O)O)C(C)C; Sar = CNCC(=O)O

Columns and labels:
[1] = system: cancer cell lines originating from other tissues; assay: 6-day cell survival assay, cancer cell lines originating from other tissues (summary); assay type: cell-based; settings: lung, liver, breast, pancreas lines
Method: Cell survival assays (FIGS. 12-19) were performed in 96-well plates in technical duplicates. Treatments started 24 hours post cell plating and lasted for 6-days prior to cell viability assessment with the Cell Titer Glo 2.0 Luminescent assay (Promega, G9242).

mouse ESCs [2] = assay: Cell survival of artemisinin treated mouse embryonic stem cells (Alamar Blue, 48 h); assay type: cell-based; settings: artemisinin combined with acifluorfen or 5-ALA (0.5 mM)
Method: For dosage responses, cells were seeded in 96-wells (25.000/ 96-well, in triplicate -where indicated) and subjected to compounds for 48 h. Cell viability was assessed using automated cell counting (high-throughput flow cytometry), Alamar Blue staining (Invitrogen, DAL1100) or CellTiter-Glo Luminescent Assay (Promega, G7570, according to the manufacturer’s protocol) respectively.

[3] = system: colorectal cancer (CRC) cells; settings: reported in literature; cited from earlier work
[4] = system: human glioblastoma-like neoplastic organoid model; assay: Compound profiling in human glioblastoma-like neoplastic organoid model (p53, NF1, PTEN mutated); assay type: cell-based; settings: compound alone
Method: Tumor initiation was induced by either oncogene amplification, using a Sleeping Beauty (SB) transposase, or mutation of tumor suppressor genes, using the CRISPR-Cas9 system in day 10 old embryoid bodies (EBs). Plasmids carrying the transposase as well as GFP and the desired oncogenes or expressing Cas9 nuclease were introduced by electroporation. In brief, a mixture of 1 μg DNA and 100 μl nucleofector solution was added to 10 EBs and transferred to a nucleofection cuvette. The Lonza Nucleofector 2b and the A-023 program were used for electroporation/ nucleofection. […] Cerebral tumor organoids were treated with different compounds and the survival and growth of transformed as well as untransformed neurons was monitored. Fluorescence labeling of tumor cells allowed clear distinguishability of transformed cells as compared to non-labeled throughout the experiment using brightfield microscopy, as well as fluorescence imaging. The transformed tumor tissue and untransformed neurons within the same organoid was monitored using fluorescence imaging, as well as brightfield microscopy throughout the experiment. At the endpoint of the treatment (d5 or d7 respectively), the number of GFP-positive cells was assessed by flow cytometry. […] Brightfield and green fluorescence images were taken from the same area. […]

mouse ESCs [5] = assay: Competitive growth assay of wild-type and knockout sister ESC clones in presence of artemisinin; assay type: cell-based; settings: mixed labelled cells, artemisinin exposure, flow cytometry
Method: Haploid ESCs harbouring gene traps in nomic introns were seeded at low density in normal ESC growth medium and infected for 12 h with two viruses, one encoding mCherry plus Cre recombinase and the other coding for GFP, both together with puromycin (Invivogen, ant-pr-1). Infected cells were selected (final concentration of puromycin, 1 µg/ml) after 24 h and expanded. Ratios of GFP- to mCherry/Cre-expressing cells in the presence and absence of artemisinin were determined using high-throughput flow cytometry (BD LSRFortessa HTS Cell Analyzer).

[6] = system: human cerebral tumor organoids (CNS-PNET); assay: Compound profiling in CNS-PNET cerebral tumor organoids (GFP-positive tumor cells); assay type: cell-based; settings: very high concentrations, compound alone
Method: Tumor initiation was induced by either oncogene amplification, using a Sleeping Beauty (SB) transposase, or mutation of tumor suppressor genes, using the CRISPR-Cas9 system in day 10 old embryoid bodies (EBs). Plasmids carrying the transposase as well as GFP and the desired oncogenes or expressing Cas9 nuclease were introduced by electroporation. In brief, a mixture of 1 μg DNA and 100 μl nucleofector solution was added to 10 EBs and transferred to a nucleofection cuvette. The Lonza Nucleofector 2b and the A-023 program were used for electroporation/ nucleofection. Thereafter, EBs were transferred into 10 cm dishes containing differentiation media containing vitamin A and embedded into Matrigel 24 hours later. Two different types of tumors were initiated {Bian:2018gs}: Central nervous system primitive neuroectodermal tumors (CNS-PNET) were induced by the overexpression of Myc. Glioblastoma-like tumor group 2 (GBM-2) was caused by mutagenesis of the tumor suppressor genes p53, NF1 and PTEN. All plasmids were designed by Shan Bian {Bian, S. et al. Genetically engineered cerebral organoids model brain tumor formation. Nat. Methods 15, 631-639 (2018)}. Cerebral tumor organoids were treated with different compounds and the survival and growth of transformed as well as untransformed neurons was monitored. Fluorescence labeling of tumor cells allowed clear distinguishability of transformed cells as compared to non-labeled throughout the experiment using brightfield microscopy, as well as fluorescence imaging. The transformed tumor tissue and untransformed neurons within the same organoid was monitored using fluorescence imaging, as well as brightfield microscopy throughout the experiment. At the endpoint of the treatment (d5 or d7 respectively), the number of GFP-positive cells was assessed by flow cytometry. Cerebral (tumor) organoids were enzymatically and mechanically dissociated using 1x trypsin, 35-45 min incubation at 37° C., and gentle shaking. […] Single cells in suspension were counterstained with DAPI or a viability dye (eBioscienceTM Fixable Viability Dye eFluorTM 780, 65-0865-18), and analysed using flow cytometry (BD LSRFortessa HTS Cell Analyzer). The amounts of GFP-positive cells were analyzed. […] Brightfield and green fluorescence images were taken from the same area. Additionally, for image analyses, the Celldiscoverer 7 (Zeiss), a fully integrated high-end automated live cell imaging system, was used. Cerebral organoids were fixed in 4% PFA (room temperature, 1 h), incubated with 30% sucrose (4° C., o/n), OCT (Tissue-tek OCT Compound, […], 4583) embedded and 20 μm sections were cryostat cut (-12/-14° C.). […] Fluorescence Mounting Medium (Dako, S302380) was used for mounting the sample slides. […]

[7] = system: neuroblastoma cells (SHSY5Y), Jurkat and HL-60 cells; assay: ROS levels by Dihydroethidium (DHE) staining and flow cytometry in cell lines; assay type: cell-based; settings: artemisinin alone; Jurkat and HL-60 cells, 48 h
Method: Treated cells were collected, washed with 1x HBSS (without Ca2+ and Mg2+), incubated with 1mM DHE (Dihydroethidium (Hydroethidine), Invitrogen, D11347) in 1x HBSS for 45 min at 37° C., washed twice and counterstained with DAPI or a viability dye (eBioscience™ Fixable Viability Dye eFluor™ 780, 65-0865-18) for 10 min on ice. Cells were then collected, strained and analysed using flow cytometry for DHE in the red fluorescent spectrum (PE channel).

Row | Compound | effect of the chemotherapeutic agent when combined with the double combination ART/DHA/ARS with 5-ALA [1] | also measured
1 | N.N.O=C([O-])C1(C(=O)[O-])CCC1.[Pt+2] [carboplatin] | enhances | 
2 | CC(C)[C@]12O[C@H]1[C@@H]1O[C@]13[C@]1(O[C@H]1C[C@H]1C4=C(CC[C@@]13C)C(=O)OC4)[C@@H]2O [triptolide] | enhances | 
3 | COc1cccc2c1C(=O)c1c(O)c3c(c(O)c1C2=O)C[C@@](O)(C(=O)CO)C[C@@H]3O[C@H]1C[C@H](N)[C@H](O)[C@H](C)O1 [doxorubicin] | enhances | 
4 | O=c1[nH]cc(F)c(=O)[nH]1 [5-fluorouracil] | enhances | 
5 | O=C(O)c1cc(Oc2ccc(C(F)(F)F)cc2Cl)ccc1[N+](=O)[O-] [acifluorfen] |  | susceptibility to artemisinin (cell survival) (mouse ESCs [2]): increased resistance to artemisinin
6 | Cc1c2oc3c(C)ccc(C(=O)N[C@@H]4C(=O)N[C@H](C(C)C)C(=O)N5CCC[C@H]5C(=O)N(C)CC(=O)N(C)[C@@H](C(C)C)C(=O)O[C@@H]4C)c3nc-2c(C(=O)N[C@@H]2C(=O)N[C@H](C(C)C)C(=O)N3CCC[C@H]3C(=O)N(C)CC(=O)N(C)[C@@H](C(C)C)C(=O)O[C@@H]2C)c(N)c1=O [dactinomycin] (I: T[dV]P[Sar][NMeV] / II: T[dV]P[Sar][NMeV]; ester I:1-I:C, II:1-II:C; linker I:N-II:N via Actinocin(9to1)) | enhances | 
7 | C[C@@H]1CC[C@H]2[C@@H](C)C(=O)O[C@@H]3O[C@@]4(C)CC[C@@H]1[C@]32OO4 [artemisinin] |  | cytotoxicity [3]: specific cytotoxicity; survival of untransformed and transformed cells [4]: little effect on the survival of untransformed cells as well as transformed cells; relative growth of wild-type (mCherry_Cre) and knockout (GFP) sister cell clones (mouse ESCs [5]): selective loss of wild-type (mCherry_Cre) and strong expansion of knockout cells (GFP); growth of GFP-positive tumor organoids [6]: notable growth inhibition; ROS levels (DHE) [7]: increased levels of ROS
8 | COC(=O)C[C@](O)(CCCC(C)(C)O)C(=O)O[C@@H]1C(OC)=C[C@]23CCCN2CCc2cc4c(cc2[C@H]13)OCO4 [homoharringtonin] | enhances | 
9 | COc1cccc2c1C(=O)c1c(O)c3c(c(O)c1C2=O)C[C@@](O)(C(=O)CO)C[C@@H]3O[C@H]1C[C@H](N)[C@@H](O)[C@H](C)O1 [epirubicin] | enhances | 
10 | N.N.[Cl][Pt][Cl] [cisplatin] | enhances | 
11 | O=NN(CCCl)C(=O)NC1CCCCC1 [lomustine] | enhances | 
12 | vinorebine | enhances | 
